ChEMBL document CHEMBL5653631, “A Potent and Selective ULK1 Inhibitor Suppresses Autophagy and Sensitizes Cancer Cells to Nutrient Stress” (iScience, 2018)
One block for each compound: values may come before it.

Key:
[1] = target: Tyrosine-protein kinase CSK (Homo sapiens) (UniProt P41240); experiment: Inhibition of human recombinant CSK at 500 nM related to control ULK1
[2] = target: RAC-gamma serine/threonine-protein kinase (Homo sapiens) (UniProt Q9Y243); experiment: Inhibition of human recombinant AKT3 at 15 nM related to control ULK1
[3] = target: T1, Mitogen-activated protein kinase kinase kinase kinase 2 (Homo sapiens) (UniProt Q12851); experiment: Inhibition of human recombinant GCK at 15 nM related to control ULK1
T1 sequence (whole entry): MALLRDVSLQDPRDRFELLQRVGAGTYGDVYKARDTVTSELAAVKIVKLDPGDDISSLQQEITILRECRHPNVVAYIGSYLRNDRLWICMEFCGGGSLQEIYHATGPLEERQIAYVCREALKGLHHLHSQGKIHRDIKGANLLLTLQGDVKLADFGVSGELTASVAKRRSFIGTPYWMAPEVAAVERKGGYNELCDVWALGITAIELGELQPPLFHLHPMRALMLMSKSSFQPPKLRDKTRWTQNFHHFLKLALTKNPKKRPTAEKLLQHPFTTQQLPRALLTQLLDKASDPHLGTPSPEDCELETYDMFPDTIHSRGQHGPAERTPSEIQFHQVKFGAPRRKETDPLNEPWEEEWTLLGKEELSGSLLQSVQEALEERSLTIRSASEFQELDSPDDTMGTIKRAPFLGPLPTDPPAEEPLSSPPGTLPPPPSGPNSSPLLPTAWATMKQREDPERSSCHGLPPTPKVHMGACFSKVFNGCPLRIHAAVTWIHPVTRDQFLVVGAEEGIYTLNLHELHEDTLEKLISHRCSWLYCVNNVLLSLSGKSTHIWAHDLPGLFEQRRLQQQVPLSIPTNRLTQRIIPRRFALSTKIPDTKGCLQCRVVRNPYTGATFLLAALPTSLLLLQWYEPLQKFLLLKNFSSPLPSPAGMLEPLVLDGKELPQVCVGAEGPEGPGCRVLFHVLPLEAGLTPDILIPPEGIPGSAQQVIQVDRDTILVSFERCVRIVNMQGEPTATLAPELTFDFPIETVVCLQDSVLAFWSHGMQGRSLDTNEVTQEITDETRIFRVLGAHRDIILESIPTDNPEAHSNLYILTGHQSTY

[4] = target: T2, Mitogen-activated protein kinase kinase kinase 5 (Homo sapiens) (UniProt Q99683); experiment: Inhibition of human recombinant MAP3K5 at 15 nM related to control ULK1
T2 sequence (whole entry): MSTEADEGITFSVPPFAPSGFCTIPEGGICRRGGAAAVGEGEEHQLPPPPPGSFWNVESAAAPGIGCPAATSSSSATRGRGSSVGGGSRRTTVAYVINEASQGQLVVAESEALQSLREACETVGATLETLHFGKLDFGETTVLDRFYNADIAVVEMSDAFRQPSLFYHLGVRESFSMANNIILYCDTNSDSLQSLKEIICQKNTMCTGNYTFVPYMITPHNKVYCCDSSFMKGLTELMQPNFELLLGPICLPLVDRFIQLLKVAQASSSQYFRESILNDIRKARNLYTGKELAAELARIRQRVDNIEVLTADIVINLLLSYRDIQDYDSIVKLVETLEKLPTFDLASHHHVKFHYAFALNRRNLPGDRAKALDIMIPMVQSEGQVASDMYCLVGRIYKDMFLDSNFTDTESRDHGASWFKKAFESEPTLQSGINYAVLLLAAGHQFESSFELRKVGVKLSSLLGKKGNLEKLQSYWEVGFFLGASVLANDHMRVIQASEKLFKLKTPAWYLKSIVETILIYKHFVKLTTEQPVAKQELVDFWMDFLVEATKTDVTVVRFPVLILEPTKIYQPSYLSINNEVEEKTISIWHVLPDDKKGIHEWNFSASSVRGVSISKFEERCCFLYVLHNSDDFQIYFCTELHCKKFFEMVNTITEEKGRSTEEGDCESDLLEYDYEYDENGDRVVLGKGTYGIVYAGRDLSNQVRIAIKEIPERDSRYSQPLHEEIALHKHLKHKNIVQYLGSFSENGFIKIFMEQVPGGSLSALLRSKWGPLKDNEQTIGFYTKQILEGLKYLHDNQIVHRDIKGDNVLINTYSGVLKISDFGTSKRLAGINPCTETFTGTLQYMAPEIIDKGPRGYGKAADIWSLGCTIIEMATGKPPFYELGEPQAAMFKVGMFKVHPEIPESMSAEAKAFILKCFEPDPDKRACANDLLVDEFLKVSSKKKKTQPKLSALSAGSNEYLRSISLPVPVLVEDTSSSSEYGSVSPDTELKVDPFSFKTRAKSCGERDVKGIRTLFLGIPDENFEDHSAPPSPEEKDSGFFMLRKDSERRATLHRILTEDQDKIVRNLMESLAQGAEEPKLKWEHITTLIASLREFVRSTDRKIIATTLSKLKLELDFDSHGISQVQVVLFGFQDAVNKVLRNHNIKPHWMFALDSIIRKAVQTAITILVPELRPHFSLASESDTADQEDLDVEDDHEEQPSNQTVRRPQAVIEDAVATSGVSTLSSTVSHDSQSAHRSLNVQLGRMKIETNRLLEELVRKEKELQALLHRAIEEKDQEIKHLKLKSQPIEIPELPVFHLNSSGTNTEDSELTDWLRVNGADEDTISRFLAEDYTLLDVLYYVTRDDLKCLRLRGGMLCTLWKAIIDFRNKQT

[5] = target: Calcium/calmodulin-dependent protein kinase type 1D (Homo sapiens) (UniProt Q8IU85); experiment: Inhibition of human recombinant CaMK1d at 40 nM in presence of ATP by radiometric assay relative to control
[6] = target: Tyrosine-protein kinase CSK (Homo sapiens) (UniProt P41240); experiment: Inhibition of human recombinant CSK at 40 nM in presence of ATP by radiometric assay relative to control
[7] = target: Tyrosine-protein kinase CSK (Homo sapiens) (UniProt P41240); experiment: Inhibition of human recombinant CSK at 40 nM related to control ULK1

Chain of Tyrosine-protein kinase CSK (Homo sapiens) (P41240 2-450 limits assumed): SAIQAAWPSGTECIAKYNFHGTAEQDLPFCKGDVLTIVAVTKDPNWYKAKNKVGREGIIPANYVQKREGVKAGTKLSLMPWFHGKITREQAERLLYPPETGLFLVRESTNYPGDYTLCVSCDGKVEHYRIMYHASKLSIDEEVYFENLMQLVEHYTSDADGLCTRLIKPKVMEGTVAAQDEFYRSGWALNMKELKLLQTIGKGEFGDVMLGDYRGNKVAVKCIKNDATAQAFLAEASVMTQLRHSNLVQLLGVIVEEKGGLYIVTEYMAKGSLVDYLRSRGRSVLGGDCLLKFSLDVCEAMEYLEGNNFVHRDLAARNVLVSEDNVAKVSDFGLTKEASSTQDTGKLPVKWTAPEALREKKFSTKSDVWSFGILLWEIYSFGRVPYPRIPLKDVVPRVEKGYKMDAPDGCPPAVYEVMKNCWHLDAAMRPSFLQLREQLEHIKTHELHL
Chain of RAC-gamma serine/threonine-protein kinase (Homo sapiens) (Q9Y243 whole entry): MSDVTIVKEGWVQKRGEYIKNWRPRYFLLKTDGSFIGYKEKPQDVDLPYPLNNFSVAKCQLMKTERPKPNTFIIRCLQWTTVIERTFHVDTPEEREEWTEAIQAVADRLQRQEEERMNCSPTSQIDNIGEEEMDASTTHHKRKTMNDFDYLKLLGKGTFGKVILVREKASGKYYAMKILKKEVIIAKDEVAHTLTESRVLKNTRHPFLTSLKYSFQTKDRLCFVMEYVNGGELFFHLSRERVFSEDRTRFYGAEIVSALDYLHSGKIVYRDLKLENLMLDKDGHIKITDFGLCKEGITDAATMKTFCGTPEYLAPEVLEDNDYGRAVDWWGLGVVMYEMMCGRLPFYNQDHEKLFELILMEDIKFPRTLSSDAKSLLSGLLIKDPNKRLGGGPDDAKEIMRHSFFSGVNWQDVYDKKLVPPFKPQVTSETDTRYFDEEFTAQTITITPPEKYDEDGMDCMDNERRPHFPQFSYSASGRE
Chain of Calcium/calmodulin-dependent protein kinase type 1D (Homo sapiens) (Q8IU85 whole entry, looked up): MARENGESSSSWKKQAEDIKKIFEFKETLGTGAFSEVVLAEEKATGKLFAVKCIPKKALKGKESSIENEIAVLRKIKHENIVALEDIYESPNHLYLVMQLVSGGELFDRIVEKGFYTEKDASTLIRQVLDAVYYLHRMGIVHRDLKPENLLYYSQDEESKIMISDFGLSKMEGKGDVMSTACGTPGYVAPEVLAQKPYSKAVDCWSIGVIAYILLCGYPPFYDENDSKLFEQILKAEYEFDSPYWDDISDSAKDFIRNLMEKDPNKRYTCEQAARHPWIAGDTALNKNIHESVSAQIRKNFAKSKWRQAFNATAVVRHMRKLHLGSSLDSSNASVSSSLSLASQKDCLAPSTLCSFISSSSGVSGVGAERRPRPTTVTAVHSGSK

fold change (FC) [1]: 0.03
Compound: CNC(=O)c1ccccc1Oc1nc(Nc2cc(OC)c(OC)c(OC)c2)ncc1Br

fold change (FC) [2]: 0.09 | fold change (FC) [3]: 0.39 | fold change (FC) [4]: 0
Compound: CC(C)[C@H](NC(=O)c1cc(-c2cnn3cc(-c4ccc(OCCN5CCCCC5)cc4)cnc23)cs1)C(F)(F)F

inhibition [5]: 0% | inhibition [6]: 0% | fold change (FC) [7]: 0
Compound: O=C(N[C@@H](C1CC1)C(F)(F)F)c1cc(-c2cnn3cc(-c4ccc(F)cc4)cnc23)cs1
